Results as given in patent US20100137313A1 (ASTRAZENECA AB, priority 2008, published 2010).

Biological target: S. pneumoniae Topoisomerase IV ATPase (ParE) (Streptococcus pneumoniae serotype 4, UniProt Q59961)
Experiment: S. pneumoniae Topoisomerase IV ATPase inhibition
Format: biochemical
Conditions: values marked * are an average of two or more data points, read-out: % Inh (13 μM) of S. pneumoniae Topoisomerase IV ATPase
Method in brief: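 S. pneumoniae ParE (1.25 nM) ATPase with 160 μM ATP and 5 μg/ml sheared DNA in pH 8.0 Tris, Mg2+, DTT, Brij-35; phosphate detected by malachite green/molybdate at 650 nm. Normalised to 2% DMSO (0%) and 20 μM EDTA (100%); IC50 from 10 concentrations.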

S. pneumoniae Topoisomerase IV ATPase (ParE), sequence (Q59961 whole entry): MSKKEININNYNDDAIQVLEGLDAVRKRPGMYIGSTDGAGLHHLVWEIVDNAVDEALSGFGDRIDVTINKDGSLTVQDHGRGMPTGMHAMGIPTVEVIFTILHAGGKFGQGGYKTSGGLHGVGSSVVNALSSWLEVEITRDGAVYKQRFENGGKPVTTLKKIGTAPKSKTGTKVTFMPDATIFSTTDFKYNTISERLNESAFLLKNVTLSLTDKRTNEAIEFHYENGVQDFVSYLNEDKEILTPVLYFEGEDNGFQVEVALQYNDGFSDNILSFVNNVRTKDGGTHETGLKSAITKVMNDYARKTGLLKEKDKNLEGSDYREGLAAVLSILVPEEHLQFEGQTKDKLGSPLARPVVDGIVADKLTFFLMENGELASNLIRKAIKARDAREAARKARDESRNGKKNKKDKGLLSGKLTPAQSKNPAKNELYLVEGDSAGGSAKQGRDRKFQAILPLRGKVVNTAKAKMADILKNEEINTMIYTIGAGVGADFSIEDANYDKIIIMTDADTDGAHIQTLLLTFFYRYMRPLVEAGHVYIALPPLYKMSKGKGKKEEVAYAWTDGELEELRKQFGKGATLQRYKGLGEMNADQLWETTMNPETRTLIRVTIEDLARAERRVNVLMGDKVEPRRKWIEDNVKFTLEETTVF

Row | SMILES | inhibition at 13 µM [%]
1 | CONC(=O)/C=C/c1cccc(-c2cnc(Nc3ccc(F)c(Cl)c3)nc2N2CCOCC2)c1 [Example 376, (E)-3-(3-(2-(3-chloro-4-fluorophenylamino)-4-morpholinopyrimidin-5-yl)phenyl)-N-methoxyacrylamide] | 87.2
2 | O=C(O)c1cncc(-c2cnc(Nc3ccc(F)c(Cl)c3)nc2N2CCCCCC2)c1 [Example 254, 5-[4-(azepan-1-yl)-2-[(3-chloro-4-fluorophenyl)amino]-pyrimidin-5-yl]pyridine-3-carboxylic acid] | 16.8
3 | COc1cc(Nc2ncc(-c3cncnc3)c(-n3nc(C(F)(F)F)cc3C)n2)cc(C(F)(F)F)c1 [Example 882, N-(3-methoxy-5-(trifluoromethyl)phenyl)-4-(5-methyl-3-(trifluoromethyl)-1H-pyrazol-1-yl)-5,5′-bipyrimidin-2-amine] | 100
4 | Cc1cc(-c2nccs2)nn1-c1nc(Nc2ccc(F)c(Cl)c2)ncc1-c1cccc(/C=C/C(=O)O)c1 [Example 562, (2E)-3-(3-{2-[(3-chloro-4-fluorophenyl)amino]-4-[5-methyl-3-(1,3-thiazol-2-yl)-1H-pyrazol-1-yl]pyrimidin-5-yl}phenyl)prop-2-enoic acid] | 100
5 | CN(C)CCCNc1nc(Nc2ccc(F)c(F)c2)ncc1-c1ccc(C(=O)O)s1 [Example 335, 5-(2-(3,4-difluorophenylamino)-4-(3-(dimethylamino)propylamino)pyrimidin-5-yl)thiophene-2-carboxylic acid] | 76.5
6 | O=C(O)c1cncc(-c2cnc(Nc3ccc(F)c([N+](=O)[O-])c3)nc2N2CCOCC2)c1 [Example 436] | 69
7 | Cc1cc(C(F)(F)F)nn1-c1nc(Nc2ccc(F)c(Cl)c2)ncc1-c1cnc(OCCc2ccncc2)c(C(=O)O)c1 [Example 871, 5-(2-(3-chloro-4-fluorophenylamino)-4-(5-methyl-3-(trifluoromethyl) 1H-pyrazol-1-yl)pyrimidin-5-yl)-2-(2-(pyridin-4-yl)ethoxy)nicotinic acid] | 100
8 | COc1cc(Nc2ncc(-c3cnc(OC)c(C(=O)NS(=O)(=O)CCCN4CCOCC4)c3)c(-n3nc(C(F)(F)F)cc3C)n2)cc(OC)c1 [Example 821, 5-{2-[(3,5-dimethoxyphenyl)amino]-4-[5-methyl-3-(trifluoromethyl)-1H-pyrazol-1-yl]pyrimidin-5-yl}-2-methoxy-N-{[3-(morpholin-4-yl)propyl]sulfonyl}pyridine-3-carboxamide] | 100
9 | COc1cc(Cl)cc(Nc2ncc(-c3cnc(OC)c(C(=O)O)c3)c(-n3ccc(C(F)(F)F)n3)n2)c1 [Example 758, 5-{2-[(3-chloro-5-methoxyphenyl)amino]-4-[3-(trifluoromethyl)-1H-pyrazol-1-yl]pyrimidin-5-yl}-2-methoxypyridine-3-carboxylic acid] | 98
10 | CONC(=O)c1cncc(-c2cnc(Nc3ccc(F)c(Cl)c3)nc2-n2nc(C(F)(F)F)cc2C)c1 [Example 933, 5-(2-(3-chloro-4-fluorophenylamino)-4-(5-methyl-3-(trifluoromethyl)-1H-pyrazol-1-yl)pyrimidin-5-yl)-N-methoxynicotinamide] | 100
11 | COc1cc(Nc2ncc(-c3cncc(C(=O)O)c3)c(-n3nc(C(F)F)cc3C)n2)cc(OC)c1 [Intermediate 1126, 5-(4-(3-(difluoromethyl)-5-methyl-1H-pyrazol-1-yl)-2-(3,5-dimethoxyphenylamino)pyrimidin-5-yl)nicotinic acid] | 100
12 | O=C(O)/C=C/c1cccc(-c2cnc(Nc3ccc(F)c(Cl)c3)nc2NCCc2c[nH]cn2)c1 [Example 264, (2E)-3-[3-(2-[(3-chloro-4-fluorophenyl)amino]-4-{[2-(1H-imidazol-4-yl)ethyl]amino}pyrimidin-5-yl)phenyl]prop-2-enoic acid] | 87.8
13 | CCOC(=O)c1cncc(-c2cnc(Nc3ccc(F)c(Cl)c3)nc2N2CCN(C(C)=O)CC2)c1 [Example 142, ethyl 5-(4-(4-acetylpiperazin-1-yl)-2-(3-chloro-4-fluorophenylamino)pyrimidin-5-yl)nicotinate] | 86.2
14 | Cc1cc(Nc2ncc(-c3cccc(/C=C/C(=O)O)c3)c(N3CCOCC3)n2)ccc1F [Example 450] | 86
15 | O=C(NCCO)c1cccc(-c2cnc(Nc3ccc(F)c(Cl)c3)nc2-n2ccc(C(F)(F)F)n2)c1 [Example 1146, 3-(2-(3-chloro-4-fluorophenylamino)-4-(3-(trifluoromethyl)-1H-pyrazol-1-yl)pyrimidin-5-yl)-N-(2-hydroxyethyl)benzamide] | 100
16 | COc1c(C(=O)O)cccc1-c1cnc(Nc2ccc(F)c(Cl)c2)nc1-n1ccc(C(F)(F)F)n1 [Example 1139, 3-(2-(3-chloro-4-fluorophenylamino)-4-(3-(trifluoromethyl)-1H-pyrazol-1-yl)pyrimidin-5-yl)-2-methoxybenzoic acid] | 96

Row | SMILES | inhibition at 13 µM [%]
17 | CN(C)CCCNc1nc(Nc2cc(Cl)cc(Cl)c2)ncc1-c1cccc(/C=C/C(=O)O)c1 [Example 340, (E)-3-(3-(2-(3,5-dichlorophenylamino)-4-(3-(dimethylamino)propylamino)pyrimidin-5-yl)phenyl)acrylic acid] | 83.3
18 | COCCNc1ncc(-c2cnc(Nc3ccc(F)c(Cl)c3)nc2-n2ccc(C(F)(F)F)n2)cc1C(=O)O [Example 1079, 5-(2-(3-Chloro-4-fluorophenylamino)-4-(3-(trifluoromethyl)-1H-pyrazol-1-yl)pyrimidin-5-yl)-2-(2-methoxyethylamino)nicotinic acid] | 100
19 | Cc1cc(C(F)(F)F)nn1-c1nc(Nc2ccc3c(c2)OCO3)ncc1-c1cccc(/C=C/C(=O)O)c1 [Example 658, (2E)-3-(3-{2-(1,3-benzodioxol-5-ylamino)-4-[5-methyl-3-(trifluoromethyl)-1H-pyrazol-1-yl]pyrimidin-5-yl}phenyl)prop-2-enoic acid] | 96
20 | O=C(O)c1cncc(-c2cnc(Nc3ccc(F)c(Cl)c3)nc2-n2cc(-c3ccncc3)cn2)c1 [Example 308, 5-{2-[(3-chloro-4-fluorophenyl)amino]-4-[4-(pyridin-4-yl)-1H-pyrazol-1-yl]pyrimidin-5-yl}pyridine-3-carboxylic acid] | 101
21 | CCN(CC)S(=O)(=O)c1cncc(-c2cnc(Nc3ccc(F)c(Cl)c3)nc2-n2ccc(C(F)(F)F)n2)c1 [Example 1033, 5-(2-(3-Chloro-4-fluorophenylamino)-4-(3-(trifluoromethyl)-1H-pyrazol-1-yl)pyrimidin-5-yl)-N,N-diethylpyridine-3-sulfonamide] | 20
22 | CNC(=O)c1cc(-c2cnc(Nc3cc(OC)cc(OC)c3)nc2-n2ccc(C(F)(F)F)n2)cnc1OC [Example 809, 5-{2-[(3,5-dimethoxyphenyl)amino]-4-[3-(trifluoromethyl)-1H-pyrazol-1-yl]pyrimidin-5-yl}-2-methoxy-N-methylpyridine-3-carboxamide] | 100
23 | COCCNC(=O)c1cncc(-c2cnc(Nc3ccc(F)c(Cl)c3)nc2-n2nc(C(F)(F)F)cc2C)c1 [Example 934, 5-(2-(3-chloro-4-fluorophenylamino)-4-(5-methyl-3-(trifluoromethyl)-1H-pyrazol-1-yl)pyrimidin-5-yl)-N-(2-methoxyethyl)nicotinamide] | 100
24 | COCCCNc1nc(Nc2ccc(F)c(Cl)c2)ncc1-c1ccc2cc(C(=O)O)[nH]c2c1 [Example 1061, 6-(2-(3-chloro-4-fluorophenylamino)-4-(3-methoxypropylamino)pyrimidin-5-yl)-1H-indole-2-carboxylic acid] | 92
25 | Fc1ccc(Nc2ncc(-c3nc4ccccc4[nH]3)c(N3CCOCC3)n2)cc1Cl [Example 497, 5-(1H-benzimidazol-2-yl)-N-(3-chloro-4-fluorophenyl)-4-(morpholin-4-yl)pyrimidin-2-amine] | 61
26 | CCOC(=O)c1sc(-c2cnc(Nc3ccc(F)c(Cl)c3)nc2NCCCOC)nc1-c1ccn(C)n1 [Example 508, ethyl 2-{2-[(3-chloro-4-fluorophenyl)amino]-4-[(3-methoxypropyl)amino]pyrimidin-5-yl}-4-(1-methyl-1H-pyrazol-3-yl)-1,3-thiazole-5-carboxylate] | 0
27 | O=C(O)c1cncc(-c2cnc(Nc3ccc(F)c(Cl)c3)nc2NCc2ccncc2)c1 [Example 224, 5-{2-(3-Chloro-4-fluoro-phenylamino)-4-[(pyridin-4-ylmethyl)-amino]-pyrimidin-5-yl}-nicotinic acid] | 78.5
28 | COc1cc(Nc2ncc(-c3cc(C(=O)O)c(=O)n(CCS(C)(=O)=O)c3)c(-n3nc(C(F)(F)F)cc3C)n2)cc(OC)c1 [Example 1097, 5-(2-(3,5-Dimethoxyphenylamino)-4-(5-methyl-3-(trifluoromethyl)-1H-pyrazol-1-yl)pyrimidin-5-yl)-1-(2-(methylsulfonyl)ethyl)-2-oxo-1,2-dihydropyridine-3-carboxylic acid] | 100
29 | COc1ncc(-c2cnc(Nc3cccc(C(N)=O)c3)nc2-n2ccc(C(F)(F)F)n2)cc1C(=O)O [Example 722, 5-{2-[(3-carbamoylphenyl)amino]-4-[3-(trifluoromethyl)-1H-pyrazol-1-yl]pyrimidin-5-yl}-2-methoxypyridine-3-carboxylic acid] | 93
30 | O=C(O)c1cc2cc(-c3cnc(Nc4ccc(F)c(Cl)c4)nc3N3CCOCC3)ccc2[nH]1 [Example 1064, 5-(2-(3-Chloro-4-fluorophenylamino)-4-morpholinopyrimidin-5-yl)-1H-indole-2-carboxylic acid] | 100
31 | COCCNc1ncc(-c2cnc(Nc3ccc(F)c(Cl)c3)nc2-n2nc(C(F)(F)F)cc2C)cc1C(=O)O [Example 1080, 5-(2-(3-Chloro-4-fluorophenylamino)-4-(5-methyl-3-(trifluoromethyl)-1H-pyrazol-1-yl)pyrimidin-5-yl)-2-(2-methoxyethylamino)nicotinic acid] | 100
